Assays:
Type in all cases: in vivo
[1] = tested on: barnyardgrass (Echinochloa crus-galli); assay: Test A preemergence; settings: Echinochloa crus-galli, pre-emergence, 240 h, 0 to 100 scale where 0 is no effect and 100 is complete control, read-out: Barnyardgrass plant response rating
Procedure, shortened: (§1)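 Greenhouse, ~10 d after spray; visual injury vs untreated controls, 0 = no effect, 100 = complete control. Preemergence: directed soil spray over planted seeds. Postemergence: plants 2–10 cm, 1–2 leaf stage. Loam/sand blend. Compound in non-phytotoxic solvent with surfactant.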

[2] = tested on: ryegrass, Italian (Italian ryegrass, Lolium multiflorum); assay: Test A preemergence; settings: Lolium multiflorum, pre-emergence, 240 h, 0 to 100 scale where 0 is no effect and 100 is complete control, read-out: Ryegrass, Italian plant response rating
Procedure, shortened: as §1

Kochia (Kochia scoparia) [3] = assay: Test A preemergence; settings: Bassia scoparia, pre-emergence, 240 h, 0 to 100 scale where 0 is no effect and 100 is complete control, read-out: Kochia plant response rating
Procedure, shortened: as §1

[4] = tested on: giant foxtail (Setaria faberii); assay: Test A preemergence; settings: Setaria faberi, pre-emergence, 240 h, 0 to 100 scale where 0 is no effect and 100 is complete control, read-out: Foxtail, Giant plant response rating
Procedure, shortened: as §1

[5] = tested on: pigweed (Amaranthus retroflexus); assay: Test A preemergence; settings: Amaranthus retroflexus, pre-emergence, 240 h, 0 to 100 scale where 0 is no effect and 100 is complete control, read-out: Pigweed plant response rating
[6] = tested on: ragweed (common ragweed, Ambrosia elatior); assay: Test A preemergence; settings: Ambrosia artemisiifolia, pre-emergence, 240 h, 0 to 100 scale where 0 is no effect and 100 is complete control, read-out: Ragweed plant response rating
Procedure, shortened: as §1

[7] = tested on: sedge, umbrella (small-flower umbrella sedge, Cyperus difformis); assay: Test B flooded paddy test; settings: Cyperus difformis, 250 g ai/ha, Flood; 0 to 100 scale where 0 is no effect and 100 is complete control; read-out: Sedge, Umbrella plant response rating
Procedure, shortened: (§2)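 Plants at 2-leaf stage flooded to 3 cm above soil, with compounds applied directly to paddy water and that depth maintained. Plants kept in greenhouse 13–15 d. Visual rating versus controls on a 0 (no effect) to 100 (complete control) scale.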

[8] = tested on: barnyardgrass (Echinochloa crus-galli); assay: Test B flooded paddy test; settings: Echinochloa crus-galli, 250 g ai/ha, Flood; 0 to 100 scale where 0 is no effect and 100 is complete control; read-out: Barnyardgrass plant response rating
Procedure, shortened: as §2

rice (Oryra sativa) = assay: Test B flooded paddy test; settings: Oryza sativa, 250 g ai/ha, Flood; 0 to 100 scale where 0 is no effect and 100 is complete control; read-out: Rice plant response rating
Procedure, shortened: as §2

[9] = tested on: ducksalad (Heteranthera limosa); assay: Test B flooded paddy test; settings: Heteranthera limosa, 250 g ai/ha, Flood; 0 to 100 scale where 0 is no effect and 100 is complete control; read-out: Ducksalad plant response rating
Procedure, shortened: as §2

[10] = tested on: barnyardgrass (Echinochloa crus-galli); assay: Test A postemergence; settings: Echinochloa crus-galli, post-emergence, 240 h
Procedure, shortened: as §1

[11] = tested on: ryegrass, Italian (Italian ryegrass, Lolium multiflorum); assay: Test A postemergence; settings: Lolium multiflorum, post-emergence, 240 h
Procedure, shortened: as §1

Kochia (Kochia scoparia) [12] = assay: Test A postemergence; settings: Bassia scoparia, post-emergence, 240 h
Procedure, shortened: as §1

[13] = tested on: giant foxtail (Setaria faberii); assay: Test A postemergence; settings: Setaria faberi, post-emergence, 240 h
Procedure, shortened: as §1

corn (Zea mays) = assay: Test A postemergence; settings: Zea mays, post-emergence, 240 h
Procedure, shortened: as §1

[14] = tested on: pigweed (Amaranthus retroflexus); assay: Test A postemergence; settings: Amaranthus retroflexus, post-emergence, 240 h
Procedure, shortened: as §1

[15] = tested on: ragweed (common ragweed, Ambrosia elatior); assay: Test A postemergence; settings: Ambrosia artemisiifolia, post-emergence, 240 h
Procedure, shortened: as §1

[16] = tested on: wheat (Triticum aestivum); assay: Test A postemergence; settings: Triticum aestivum, post-emergence, 240 h
Procedure, shortened: as §1

[17] = tested on: Galium (catchweed bedstraw, Galium aparine); assay: Test A postemergence; settings: Galium, post-emergence, 240 h
Procedure, shortened: as §1

[18] = tested on: blackgrass (Alopecurus myosuroides); assay: Test A postemergence; settings: Alopecurus myosuroides, post-emergence, 240 h
Procedure, shortened: as §1

[19] = 125 g ai/ha, preemergence, approx. 10 d

## CN1C[C@H](c2cccc(C(F)(F)F)c2)[C@@H](C(=O)Nc2ccccc2CCO)C1=O (racemic) [Compound 1162]
[1]; 31 g ai/ha, Preemergence
  pest or weed control at 31 g/ha: 40%
[1]; [19]
  pest or weed control at 125 g/ha: 90%
[2]; 31 g ai/ha, Preemergence
  pest or weed control at 31 g/ha: 0%
[2]; [19]
  pest or weed control at 125 g/ha: 20%
Kochia (Kochia scoparia) [3]; 31 g ai/ha, Preemergence
  pest or weed control at 31 g/ha: 0%
Kochia (Kochia scoparia) [3]; [19]
  pest or weed control at 125 g/ha: 0%
[4]; 31 g ai/ha, Preemergence
  pest or weed control at 31 g/ha: 50%
[4]; [19]
  pest or weed control at 125 g/ha: 90%
[5]; 31 g ai/ha, Preemergence
  pest or weed control at 31 g/ha: 0%
[5]; [19]
  pest or weed control at 125 g/ha: 0%
[6]; 31 g ai/ha, Preemergence
  pest or weed control at 31 g/ha: 0%
[6]; [19]
  pest or weed control at 125 g/ha: 0%
[7]
  pest or weed control at 250 g/ha: 0%
[8]
  pest or weed control at 250 g/ha: 35%
Rice (Oryra sativa)
  pest or weed control at 250 g/ha: 15%
[9]
  pest or weed control at 250 g/ha: 80%
[10]; 125 g ai/ha, postemergence, visual injury vs untreated controls after approx. 10 d, 0 = no effect, 100 = complete control, read-out: Barnyardgrass plant response rating (0 to 100 scale)
  pest or weed control at 125 g/ha: 60%
[10]; Postemergence, 31 g ai/ha, visual injury after approx. 10 d, 0 to 100 scale, 0 no effect, 100 complete control, read-out: Plant response rating, Barnyardgrass
  pest or weed control at 31 g/ha: 30%
[11]; 125 g ai/ha, postemergence, visual injury vs untreated controls after approx. 10 d, 0 = no effect, 100 = complete control, read-out: Ryegrass, Italian plant response rating (0 to 100 scale)
  pest or weed control at 125 g/ha: 0%
[11]; Postemergence, 31 g ai/ha, visual injury after approx. 10 d, 0 to 100 scale, 0 no effect, 100 complete control, read-out: Plant response rating, Ryegrass, Italian
  pest or weed control at 31 g/ha: 0%
Kochia (Kochia scoparia) [12]; 125 g ai/ha, postemergence, visual injury vs untreated controls after approx. 10 d, 0 = no effect, 100 = complete control, read-out: Kochia plant response rating (0 to 100 scale)
  pest or weed control at 125 g/ha: 0%
Kochia (Kochia scoparia) [12]; Postemergence, 31 g ai/ha, visual injury after approx. 10 d, 0 to 100 scale, 0 no effect, 100 complete control, read-out: Plant response rating, Kochia
  pest or weed control at 31 g/ha: 0%
[13]; 125 g ai/ha, postemergence, visual injury vs untreated controls after approx. 10 d, 0 = no effect, 100 = complete control, read-out: Foxtail, Giant plant response rating (0 to 100 scale)
  pest or weed control at 125 g/ha: 40%
[13]; Postemergence, 31 g ai/ha, visual injury after approx. 10 d, 0 to 100 scale, 0 no effect, 100 complete control, read-out: Plant response rating, Foxtail, Giant
  pest or weed control at 31 g/ha: 30%
Corn (Zea mays); 125 g ai/ha, postemergence, visual injury vs untreated controls after approx. 10 d, 0 = no effect, 100 = complete control, read-out: Corn plant response rating (0 to 100 scale)
  plant injury at 125 g/ha: 0%
Corn (Zea mays); Postemergence, 31 g ai/ha, visual injury after approx. 10 d, 0 to 100 scale, 0 no effect, 100 complete control
  Corn plant response rating (crop injury, 0 = no effect, 100 = complete kill) at 31 g/ha: 0%
[14]; 125 g ai/ha, postemergence, visual injury vs untreated controls after approx. 10 d, 0 = no effect, 100 = complete control, read-out: Pigweed plant response rating (0 to 100 scale)
  pest or weed control at 125 g/ha: 0%
[14]; Postemergence, 31 g ai/ha, visual injury after approx. 10 d, 0 to 100 scale, 0 no effect, 100 complete control, read-out: Plant response rating, Pigweed
  pest or weed control at 31 g/ha: 0%
[15]; 125 g ai/ha, postemergence, visual injury vs untreated controls after approx. 10 d, 0 = no effect, 100 = complete control, read-out: Ragweed plant response rating (0 to 100 scale)
  pest or weed control at 125 g/ha: 0%
[15]; Postemergence, 31 g ai/ha, visual injury after approx. 10 d, 0 to 100 scale, 0 no effect, 100 complete control, read-out: Plant response rating, Ragweed
  pest or weed control at 31 g/ha: 0%
[16]; 125 g ai/ha, postemergence, visual injury vs untreated controls after approx. 10 d, 0 = no effect, 100 = complete control, read-out: Wheat plant response rating (0 to 100 scale)
  plant injury at 125 g/ha: 20%
[16]; Postemergence, 31 g ai/ha, visual injury after approx. 10 d, 0 to 100 scale, 0 no effect, 100 complete control, read-out: Plant response rating, Wheat
  plant injury at 31 g/ha: 0%
[17]; 125 g ai/ha, postemergence, visual injury vs untreated controls after approx. 10 d, 0 = no effect, 100 = complete control, read-out: Galium plant response rating (0 to 100 scale)
  pest or weed control at 125 g/ha: 50%
[17]; Postemergence, 31 g ai/ha, visual injury after approx. 10 d, 0 to 100 scale, 0 no effect, 100 complete control, read-out: Plant response rating, Galium
  pest or weed control at 31 g/ha: 0%
[18]; 125 g ai/ha, postemergence, visual injury vs untreated controls after approx. 10 d, 0 = no effect, 100 = complete control, read-out: Blackgrass plant response rating (0 to 100 scale)
  pest or weed control at 125 g/ha: 0%
[18]; Postemergence, 31 g ai/ha, visual injury after approx. 10 d, 0 to 100 scale, 0 no effect, 100 complete control, read-out: Plant response rating, Blackgrass
  pest or weed control at 31 g/ha: 0%

From US12077503B2, “Substituted cyclic amides and their use as herbicides” (FMC CORPORATION, priority 2015, dated 2024)
